Assay results from PMC5700124 (Scientific Reports, 2017).
Entries after “also recorded” stand apart in the source; their conditions may differ. Where two headings read alike, the source gives them in different places.

Tests used:
[1] = system: α7 nicotinic acetylcholine receptors; parameters: method as in PMID 26455500; details: 1.24 mg/kg; cited from earlier work
[2] = system: α2 adrenoceptors; test: PET of [^11C]yohimbine binding in rat brain at baseline and at challenge with unlabeled yohimbine; details: for Binding potentials, BPND, percent-wise change (%) / Volumes of Distribution, VT, percent-wise change (%): COLD vs BASE, individual rats 1-5
[3] = system: α2 adrenoceptor subtypes; parameters: method as in PMID 7908054; details: cited from earlier work
[4] = system: plasma proteins; details: in the circulation; cited from earlier work
[5] = system: plasma proteins; test: Plasma ultrafiltration, ex vivo (plasma free fraction fP of [^11C]yohimbine); format: in vitro ADME, rat; details: 0.3 mg/kg yohimbine i.v., P < 0.05
Protocol: In the ex vivo experiment, a separate group of six female Sprague Dawley rats were subjected to plasma ultrafiltration and treated identically to animals that underwent PET acquisition. […] We centrifuged the blood samples in heparinized tubes for 20 min at 4 °C to generate plasma and stored the samples at −50 °C.
To measure fP , we used the Centrifree centrifugal filter device (Millipore, Bedford, MA) with a molecular cutoff of 30 kDa for all samples. […] On the day of fP determination, the plasma samples were thawed in room temperature in 20 min. […] After 10 minutes incubation at room temperature, aliquots of 50 μl of this solution were used to measure the total activity (unfiltered plasma). […] The activity of filtered plasma was determined in triplicates. All samples were counted in a gamma device (Packard Cobra Gamma Counter, Model D5003). […] The correction factor, r, was determined as the ratio of the activity in the phosphate buffer before filtration, Abuffer(total), to the filtered buffer, Abuffer(ultrafiltrate),38 r=Abuffer(total)/Abuffer(ultrafiltrate), from which the plasma-free fraction, fP , was calculated as the ratio of the activity of the filtered plasma, Aplasma(ultrafiltrate), to the unfiltered plasma, Aplama(total), multiplied by the correction factor, r, for recovery,39 fP=rAplasma(ultrafiltrate)/Aplasma(total),

[6] = parameters: method as in Jakobsen et al.[14]; details: pigs, ref Jakobsen et al.[14], cited from earlier work
[7] = system: α2 adrenoceptors; parameters: method as in Jakobsen and colleagues[14]; details: porcine brain, ref Jakobsen and colleagues[14], cited from earlier work
[8] = rats; cited from earlier work
[9] = system: [^11C]mirtazepin binding in porcine brain; parameters: method as in Smith et al.[34]; details: ref Smith et al.[34], cited from earlier work
[10] = target: α2 adrenoceptor; details: anterior forebrain; autoradiography; pH 7.7, 22 °C, mg^2+ 0; blocking of NS phentolamine 10 μM; ref Boyajian et al.[41]; cited from earlier work
[11] = system: plasma proteins; parameters: method as in PMID 7836362; details: cited from earlier work
[12] = system: translocator protein (TSPO); parameters: method as in Hilmer et al.[39]; details: 0.1 ng/kg i.v.; ref Hilmer et al.[39]; cited from earlier work
[13] = system: α1 and α2 adrenoceptors; parameters: method as in PMID 16153828; details: cited from earlier work
[14] = CEREB cerebellum, unlabeled yohimbine 0.3 mg/kg i.v.
[15] = CP caudate putamen, unlabeled yohimbine 0.3 mg/kg i.v.
[16] = HYP hypothalamus, unlabeled yohimbine 0.3 mg/kg i.v.
[17] = MC motor cortex, unlabeled yohimbine 0.3 mg/kg i.v.
[18] = OLF olfactory bulb, unlabeled yohimbine 0.3 mg/kg i.v.
[19] = PFC prefrontal cortex, unlabeled yohimbine 0.3 mg/kg i.v.
[20] = SSC somatosensory cortex, unlabeled yohimbine 0.3 mg/kg i.v.
[21] = THAL thalamus, unlabeled yohimbine 0.3 mg/kg i.v.
[22] = unlabeled yohimbine 0.3 mg/kg vs baseline

## O=S1(=O)c2cc(N3CCN4CCC3CC4)ccc2-c2cccc(F)c21 [ASEM]
[1]
  increase of fP of [^18F] DBT-10: two-fold increase

## COC(=O)[C@@H]1[C@H]2C[C@H]3c4[nH]c5ccccc5c4CCN3C[C@@H]2CC[C@@H]1O [yohimbine]
[2]; [14]
  Binding potentials, BPND, percent-wise change (%): (−54) %; also recorded: (−63) %; also recorded: (−82) %; also recorded: (−56) %; also recorded: (−51) %
  Volumes of Distribution, VT, percent-wise change (%): (19) %; also recorded: (5) %; also recorded: (0) %; also recorded: (16) %; also recorded: (27) %
[2]; [15]
  Binding potentials, BPND, percent-wise change (%): (−64) %; also recorded: (−59) %; also recorded: (−55) %; also recorded: (−47) %
  Volumes of Distribution, VT, percent-wise change (%): (−6) %; also recorded: (5) %; also recorded: (25) %; also recorded: (3) %; also recorded: (34) %
[2]; HIP hippocampus, unlabeled yohimbine 0.3 mg/kg i.v.
  Binding potentials, BPND, percent-wise change (%): (−59) %; also recorded: (−58) %; also recorded: (−50) %; also recorded: (−54) %; also recorded: (−46) %
[2]; HIPP hippocampus, unlabeled yohimbine 0.3 mg/kg i.v.
  Volumes of Distribution, VT, percent-wise change (%): (4) %; also recorded: (9) %; also recorded: (36) %; also recorded: (14) %; also recorded: (35) %
[2]; [16]
  Binding potentials, BPND, percent-wise change (%): (−58) %; also recorded: (−61) %; also recorded: (−65) %; also recorded: (−53) %; also recorded: (−49) %
  Volumes of Distribution, VT, percent-wise change (%): (7) %; also recorded: (5) %; also recorded: (13) %; also recorded: (18) %; also recorded: (33) %
[2]; [17]
  Binding potentials, BPND, percent-wise change (%): (−63) %; also recorded: (−65) %; also recorded: (−50) %; also recorded: (−61) %; also recorded: (−42) %
  Volumes of Distribution, VT, percent-wise change (%): (1) %; also recorded: (−6) %; also recorded: (39) %; also recorded: (−1) %; also recorded: (44) %
[2]; [18]
  Binding potentials, BPND, percent-wise change (%): (−71) %; also recorded: (−60) %; also recorded: (−78) %; also recorded: (−53) %; also recorded: (−58) %
  Volumes of Distribution, VT, percent-wise change (%): (−15) %; also recorded: (10) %; also recorded: (−6) %; also recorded: (22) %; also recorded: (23) %
[2]; [19]
  Binding potentials, BPND, percent-wise change (%): (−63) %; also recorded: (−60) %; also recorded: (−39) %; also recorded: (−61) %; also recorded: (−44) %
  Volumes of Distribution, VT, percent-wise change (%): (−1) %; also recorded: (4) %; also recorded: (53) %; also recorded: (0) %; also recorded: (40) %
[2]; [20]
  Binding potentials, BPND, percent-wise change (%): (−63) %; also recorded: (−62) %; also recorded: (−45) %; also recorded: (−59) %; also recorded: (−41) %
  Volumes of Distribution, VT, percent-wise change (%): (−2) %; also recorded: (0) %; also recorded: (47) %; also recorded: (3) %; also recorded: (45) %
[2]; [21]
  Binding potentials, BPND, percent-wise change (%): (−58) %; also recorded: (−57) %; also recorded: (−52) %; also recorded: (−44) %
  Volumes of Distribution, VT, percent-wise change (%): (7) %; also recorded: (22) %; also recorded: (15) %; also recorded: (37) %
[2]; average, 0.3 mg/kg yohimbine challenge, Extended Inhibition Plot
  degree of saturation, s (available receptors blocked): 56%
[2]; on average, unlabeled yohimbine 0.3 mg/kg i.v.
  decline of BPND of [^11C]yohimbine in the challenge condition compared to baseline: 50–60%
[2]; [22]
  effect of challenge on K1 of [^11C]yohimbine: markedly elevated
  effect of challenge on k2′ of [^11C]yohimbine: higher
[3]
  affinity to α2 adrenoceptor subtypes: does not distinguish between the subtypes
[4]
  fraction bound to plasma proteins: More than 80%
[5]
  increase of plasma free fraction fP of [^11C]yohimbine compared to baseline: 30%
[6]; higher dose 1.6 mg/kg
  global lowering of CBF: 30%
[6]; low dose 0.07 mg/kg
  effect on CBF: unaffected
[7]; low dose 0.07 mg/kg
  reduction of VT of [^11C]yohimbine: approximately 30%
[7]; pre-treatment 1.7 mg/kg
  reduction of VT of [^11C]yohimbine: failed to decrease VT further
[8]
  effect on blood pressure and heart rate: raise blood pressure and heart rate
[9]; 0.3 mg/kg
  reduction of [^11C]mirtazepin binding: 23%
[9]; 3.0 mg/kg
  reduction of [^11C]mirtazepin binding: 43%

## COC(=O)[C@H]1[C@H]2C[C@H]3c4[nH]c5ccccc5c4CCN3C[C@H]2CC[C@@H]1O [[^3H] -rauwolscine, [^3H]rauwolscine]
[10]
  Kd: 790 pM

## C=CC1=C(C)/C(=C/c2[nH]c(Cc3[nH]c(/C=C4\NC(=O)C(C)=C4C=C)c(C)c3CCC(=O)O)c(CCC(=O)O)c2C)NC1=O [bilirubin]
[11]
  rate of relaxation from plasma proteins: 0.6 s⁻¹

## lipopolysaccharide [LPS]
[12]
  increase of [^11C] PBR28 VT: 39%

## Cc1ccc(N(CC2=NCCN2)c2cccc(O)c2)cc1 [phentolamine]
[13]
  selectivity between α1 and α2 adrenoceptors: higher selectivity to α1 adrenoceptor
